From ChEMBL document CHEMBL1157539, “Thousands of chemical starting points for antimalarial lead identification” (Nature, 2010)

tested on: Plasmodium falciparum; test: GSK_TCMDC: Inhibition of Plasmodium falciparum 3D7 in whole erythrocytes, using parasite LDH activity as an index of growth.; assay type: functional, organism-based; settings: Plasmodium falciparum, 3D7

Row | Structure (SMILES) | XC50
1 | Cc1cc(N/N=C/c2cccc([N+](=O)[O-])c2)c2ccccc2n1 | 728 nM
2 | CCN(CC)CCCN(Cc1ccc(-c2ccc(C(F)(F)F)cc2)cc1)C(=O)Cn1c(SCc2cccc(F)c2F)cc(=O)c2ccccc21 | 1320 nM
3 | CN1CCCc2ccc(NC(=O)c3cnc(-c4ccccc4)cn3)cc21 | 905 nM
4 | CS(=O)(=O)CCOCc1ccc(-c2ccc3ncnc(Nc4ccc(OCc5cccc(F)c5)c(Cl)c4)c3c2)o1 | 803 nM
5 | Cc1ccc(CNc2cc(C(F)(F)F)nc(-c3ccc(S(C)(=O)=O)cc3)n2)cc1 | 498 nM
6 | CN(C)Cc1ccc2nc(-c3cccc(Cc4cc(Cl)ccc4OCc4ccc(Cl)cc4F)n3)[nH]c2c1 | 1130 nM
7 | Cc1ccc(NC(=O)c2cc(Br)cc(N3CCC(N(C)C)CC3)c2)cc1F | 840 nM
8 | NC(=O)N1CCN(Cc2ccc(Br)cc2)CC1 | 619 nM
9 | Cc1cc(NCCc2ccc(O)cc2)nc(NCC(c2ccccc2)c2ccccc2)n1 | 320 nM
10 | CC(N)(Cc1ccc(O)cc1)c1nnn[nH]1 (configuration not stated) | 969 nM
11 | CCCC(C)NC(=O)[C@H](CC1CCCCC1)NC(=O)c1ccc(O)c(-c2cccc(C(F)(F)F)c2)c1 (some centres not stated) | 534 nM
12 | COc1ccc(-n2ccnc2SCC(=O)Nc2cc(C(F)(F)F)ccc2Cl)c(OC)c1 | 35 nM
13 | c1cnc2ccc(NCc3ccc(-c4ccc(CNC5CCCC5)cc4)cc3)cc2c1 | 874 nM
14 | Cc1ccc(CNC(=O)[C@H](CC(C)C)Nc2cc(C)nc(Nc3ccccc3)n2)cc1 | 1770 nM
15 | O=C(Nc1ccccc1)c1c[nH]cn1 | 991 nM
16 | Cc1cccc2nc(-c3ccc(-c4ccc(CN5CCN(C6CCN(C)CC6)CC5)cc4)s3)[nH]c12 | 145 nM
17 | Oc1ccccc1CNCC(O)c1cc(C(F)(F)F)cc(C(F)(F)F)c1 (configuration not stated) | 184 nM
18 | O=C(NC1CCC(N2CCC(c3nc4ccccc4s3)CC2)CC1)c1cc2ccccc2[nH]1 (configuration not stated) | 926 nM
19 | COc1ccc(NC(=O)Nc2ccc(Nc3nc(C)cc(N4CCCC4)n3)cc2)cc1 | 135 nM
20 | CN1CCCc2cc(NC(=O)c3cc(-c4ccc(Cl)cc4)cs3)ccc2C1 | 810 nM
21 | CCc1cc(NC(=O)Nc2ccnc3ccccc23)ccc1OC | 138 nM
22 | CC(Sc1nc2sccc2c(=O)n1C)C(=O)Nc1ccc2c(c1)OCO2 (configuration not stated) | 1040 nM
23 | O=C(/C=C/c1ccc(Cl)c(Cl)c1)NCCCCCN1CCC(NC(=O)c2cc(Cl)ccc2F)CC1 | 1160 nM
24 | O=C(NCC(CCCN1CCC(c2c[nH]c3ccccc23)CC1)c1ccccc1)Nc1ccc(Cl)c(Cl)c1 (configuration not stated) | 787 nM
25 | C=CCN(c1nc(NC)nc(NCc2c(OC)cccc2OC)n1)C1CCCC1 | 1460 nM

Row | Structure (SMILES) | XC50
26 | CNC(=O)c1ccc2[nH]cc(C3CCN(CC4CCC(NC(=O)/C=C/c5ccc(Cl)c(Cl)c5)CC4)CC3)c2c1 (configuration not stated) | 1010 nM
27 | CC1CCN(C(=O)[C@H](Cc2c[nH]c3ccccc23)NS(=O)(=O)c2ccc(Cl)cc2)CC1 | 667 nM
28 | Cc1cccc2nc(-c3ccc(-c4ccc(CN5CCCC(O)C5)cc4)cc3)[nH]c12 (configuration not stated) | 859 nM
29 | Cc1cccc(C)c1OC(=O)CSc1nnc(-c2ccccc2O)o1 | 884 nM
30 | CC(C)C[C@H](Nc1ccnc(NCC2CCCCC2)n1)C(=O)NCCOc1ccccc1 | 1020 nM
31 | O=C(Nc1cccc(-c2ccc(CN3CCC(O)CC3)cc2)c1)c1ccc(Cl)cc1 | 961 nM
32 | COc1ccc(NC(=O)NC2CCN(CCCOc3cc(C)nc4ccccc34)CC2)cc1OC | 1280 nM
33 | CC(C)CN1CCCN(Cc2cccc(NC(=O)c3cc4ccccc4s3)c2)CC1 | 1770 nM
34 | CCc1ccccc1N1CCN(CCCCNC(=O)c2ccc(NC(=O)c3ccc(Cl)cc3)cc2)CC1 | 960 nM
35 | CC1CCC2(CC1)N=C(N)N=C(N)N2OCc1cc2ccccc2c2ccccc12 (configuration not stated) | 243 nM
36 | CC(C)C[C@H](Nc1ccnc(NCC2CCCCC2)n1)C(=O)NCCc1ccccc1 | 750 nM
37 | O=C(COc1ccccc1Cc1ccccc1)Nc1cc(Cl)ccc1-n1cncn1 | 640 nM
38 | COc1ccc2nc(-c3ccccc3)cc(NCCCNc3cc(-c4ccccc4)nc4ccc(OC)cc34)c2c1 | 122 nM
39 | Cn1c(NC(=O)C2CCC(CNC(=O)c3ccc(O)c(-c4cccc([N+](=O)[O-])c4)c3)CC2)nc2ccccc21 (configuration not stated) | 982 nM
40 | CC1(C)N=C(N)N=C(N)N1c1ccc([N+](=O)[O-])cc1 | 234 nM
41 | COc1cc(Cc2cnc(N)nc2N)cc(OCCn2ccccc2=O)c1OC | 773 nM
42 | CN1CCC(C(=O)Nc2cccc(-c3ccc(-c4nc5cc(C(F)(F)F)ccc5[nH]4)cc3)c2)CC1 | 675 nM
43 | CC[C@H]1CN2CCc3cc(OC)c(OC)cc3[C@@H]2C[C@@H]1C[C@H]1NCCc2c1cc(OC)c(O)c2Cl | 144 nM
44 | O=C(c1ccc(-c2cnc3[nH]cc(-c4ccc(C(=O)N5CCOCC5)cc4)c3c2)cc1)N1CCOCC1 | 1000 nM
45 | O=C(NCCCCCN1CCC(c2c[nH]c3ccccc23)C1)Nc1ccc(Cl)c(Cl)c1 (configuration not stated) | 811 nM
46 | Nc1[nH]c2ccccc2c(=O)c1-c1nc2ccccc2s1 | 303 nM
47 | O=C(Nc1cccc(-c2ccc(-c3nc4cc(C(F)(F)F)ccc4[nH]3)s2)c1)c1ccncc1 | 681 nM
48 | CCN(CC)CCn1c(=N)n(CC(O)c2ccc(Cl)c(Cl)c2)c2ccccc21 (configuration not stated) | 785 nM
49 | Cc1ccccc1C1CCN(C2CCC(NC(=O)/C=C/c3cccc(F)c3)CC2)CC1 (configuration not stated) | 1190 nM
50 | N=C(N)Nc1nc(-c2cccc(NC(=O)NCc3ccc(OC(F)(F)F)cc3)c2)cs1 | 703 nM

Row | Structure (SMILES) | XC50
51 | CCc1ccc(-n2c(NC(=O)c3ccccc3)nc3ccc(S(=O)(=O)NC(C)C(C)C)cc32)cc1 (configuration not stated) | 926 nM
52 | CN(C)CCCc1cc2c(cc1Cl)CCN2C(=O)Nc1ccc(-c2ccncc2)c2ccccc12 | 1180 nM
53 | COc1cccc(OC(C)(C)c2nc(N[C@@H](C)c3ccccc3)c3cn[nH]c3n2)c1 | 968 nM
54 | CC(=O)Nc1cc(C(=O)Nc2cccc(-c3cccc(-c4nc5cccc(C)c5[nH]4)c3)c2)ccc1C | 329 nM
55 | O=C(NCCCN1CCC(N2CCCCC2)CC1)C1=Cc2cc(Br)ccc2OC1 | 853 nM
56 | O=C(Nc1ccc(-c2nc3ccccc3[nH]2)cc1)c1ccc(N2CCOCC2)c([N+](=O)[O-])c1 | 794 nM
57 | Cc1cccc(C)c1CNc1ccnc2ccccc12 | 1200 nM
58 | COc1ccc2nccc([C@@H](O)CN3CCC(NCc4ccc5c(c4)NC(=O)C(C)S5)CC3)c2c1 (some centres not stated) | 200 nM
59 | O=C(Cc1ccc[n+]([O-])c1)Nc1ccc(-c2cccc(-c3nc4cc(C(F)(F)F)ccc4[nH]3)c2)cc1 | 882 nM
60 | Cc1ccc(NC(=O)c2cccc(CN3CCCN(Cc4cccc(O)c4)CC3)c2)cc1F | 705 nM
61 | COc1ccc(NC(=O)Nc2cc(C)nc3ccccc23)cc1Cl | 688 nM
62 | CCc1ccccc1N1CCN(CCCC(=O)c2ccc(NC(=O)c3ccc(Cl)cc3)cc2)CC1 | 1310 nM
63 | COc1cc2nc(N3CCN(C(=O)c4c(Cl)nsc4-c4ccccc4Cl)CC3)nc(N)c2cc1OC | 534 nM
64 | N=C(N)c1cc(Br)cc(NC(=O)Nc2cc(Br)cc(C(=N)N)c2)c1 | 819 nM
65 | O=C(N1CCN(c2ccnc3cc4c(cc23)N(Cc2ccccc2)CC4)CC1)C(F)(F)F | 257 nM
66 | Cc1cc(F)ccc1Oc1nc(Nc2ccc(N3CCOCC3)c(F)c2)nc2c1S(=O)(=O)CCC2 | 462 nM
67 | NCc1cccc(-c2cccc(CN(C(=O)Nc3ccccc3)C3CCN(Cc4ccccc4)CC3)c2)c1 | 829 nM
68 | CCCCCNC(=N)c1ccc(OCCCCCOc2ccc(C(=N)NCCCCC)cc2)cc1 | 247 nM
69 | CC(C)Cn1c(Sc2ccc(C#N)c([N+](=O)[O-])c2)nnc1-c1ccccc1 | 1090 nM
70 | Nc1cccc(CNCc2ccc(-c3cccc(-c4nc5cc(F)ccc5[nH]4)c3)cc2)c1 | 213 nM
71 | COc1ccc(N2CCN(c3nc(N)c4cc(OC)c(OC)cc4n3)CC2C)cc1 (configuration not stated) | 1420 nM
72 | Cc1cc(N2CCCC2)nc(Nc2ccc(NC(=O)c3ccco3)cc2)n1 | 842 nM
73 | Brc1cnc(NC2=NCCN2)c(Br)c1 | 335 nM
74 | COc1cc(-c2ccc(-c3cnc(N)nc3OC)[nH]2)cc(OC)c1OC | 729 nM
75 | CC(C)(CNC(=O)C1CCN(CCOc2ccc(F)c(F)c2)CC1)c1nc(-c2ccc(Cl)c(O)c2)c(-c2ccncc2)[nH]1 | 316 nM

Row | Structure (SMILES) | XC50
76 | CCCC(CCC)n1ccc2c3c(N)nc(N)nc3ccc21 | 4.9 nM
77 | Cc1noc(C)c1-c1ccc(C(=C2CCCCCCC2)c2ccc(O)cc2)cc1 | 1050 nM
78 | COc1ccc2nccc(N3CCC(SCCNS(=O)(=O)c4ccc5c(c4)NC(=O)CS5)C3)c2n1 (configuration not stated) | 1580 nM
79 | c1csc(-c2nc(NCC3CCCO3)ncc2-c2ccsc2)n1 (configuration not stated) | 487 nM
80 | Cc1n[nH]c2ccc(-c3ccc4nccc(N5CCC(N)CC5)c4c3)cc12 | 591 nM
81 | COc1nc2c(N3CCN(CCNCc4ccc5c(n4)NC(=O)CS5)CC3)ccnc2cc1F | 713 nM
82 | CCNc1cc(C(=O)N[C@@H](Cc2ccccc2)[C@H](O)CNC2(C(C)C)CCC2)cc(N2CCCCS2(=O)=O)c1 | 685 nM
83 | COc1cc2ncnc(Nc3ccc(OCc4ccccc4)c(C(F)(F)F)c3)c2cc1OC | 253 nM
84 | O=C(CC1NC(=O)c2ccccc21)Nc1ccc(-c2cccc(-c3nc4cc(C(F)(F)F)ccc4[nH]3)c2)cc1 (configuration not stated) | 958 nM
85 | CCc1ccc(O)c(-c2cc(C(=O)Nc3cccnc3)[nH]n2)c1 | 689 nM
86 | Cc1ccc(CNC(=O)[C@H](CCCN)Nc2nc(Nc3ccccc3)ncc2C)cc1 | 1530 nM
87 | O=C(Nc1ccc2c(c1)CCN2C1CCN(Cc2cccc3cc[nH]c23)C1)c1ccco1 (configuration not stated) | 1210 nM
88 | CN(C)Cc1c(O)ccc2[nH]c(-c3ccc(OC(F)(F)F)cc3)nc12 | 727 nM
89 | Cn1c(Nc2cc(C(C)(C)C)on2)nc2cc(Nc3ccnc(Nc4cccc(CS(C)(=O)=O)c4)n3)ccc21 | 571 nM
90 | CC(C)C[C@@H](/C=N/NC(N)=O)NC(=O)[C@H](CC(C)C)NC(=O)[C@H](CC(C)C)NC(=O)OCc1ccccc1 | 150 nM
91 | O=C(Nc1ccc(Cl)c(-c2nc3ccccc3[nH]2)c1)c1ccc(-c2ccc(Cl)cc2)o1 | 785 nM
92 | N#Cc1cc(C(=O)c2cc(Br)ccc2O)cn(-c2cc(Cl)cc(Cl)c2)c1=O | 879 nM
93 | C[C@H](NC(=O)c1c(CN2CCN(C(=O)C(C)(C)C)CC2)c(-c2cccs2)nc2ccccc12)C1CCCCC1 | 1180 nM
94 | CCCCCCCN(Cc1ccc(OC(C)(C)C(=O)OCC)cc1)C(=O)Nc1ccccc1OCC | 1030 nM
95 | Cc1cc(N[C@@H](CC(C)C)C(=O)NC2CCCC2)nc(NCC2CCCCC2)n1 | 858 nM
96 | CC(C)CN1CCC(COc2ccc3ncn(-c4cc(O[C@H](C)c5ccccc5C(F)(F)F)c(C(N)=O)s4)c3c2)CC1 | 618 nM
97 | Cc1ccc(Cn2cnc3cc(C(=O)Nc4ccc(-c5ccc(CN(C)C)cc5)cc4)ccc3c2=O)o1 | 1260 nM
